Assays:
[1] = target: T1, human SGLT2 (Homo sapiens, UniProt P31639); assay: Sodium-dependent 14C-methyl-α-D-glucopyranoside uptake in CHO-K1 cells stably expressing human SGLT2; type: cell-based; conditions: for inhibition at 0.1 µM: compound at 0.1 μM
T1 construct: expressed in transfected cells
T1 sequence (P31639 1-672): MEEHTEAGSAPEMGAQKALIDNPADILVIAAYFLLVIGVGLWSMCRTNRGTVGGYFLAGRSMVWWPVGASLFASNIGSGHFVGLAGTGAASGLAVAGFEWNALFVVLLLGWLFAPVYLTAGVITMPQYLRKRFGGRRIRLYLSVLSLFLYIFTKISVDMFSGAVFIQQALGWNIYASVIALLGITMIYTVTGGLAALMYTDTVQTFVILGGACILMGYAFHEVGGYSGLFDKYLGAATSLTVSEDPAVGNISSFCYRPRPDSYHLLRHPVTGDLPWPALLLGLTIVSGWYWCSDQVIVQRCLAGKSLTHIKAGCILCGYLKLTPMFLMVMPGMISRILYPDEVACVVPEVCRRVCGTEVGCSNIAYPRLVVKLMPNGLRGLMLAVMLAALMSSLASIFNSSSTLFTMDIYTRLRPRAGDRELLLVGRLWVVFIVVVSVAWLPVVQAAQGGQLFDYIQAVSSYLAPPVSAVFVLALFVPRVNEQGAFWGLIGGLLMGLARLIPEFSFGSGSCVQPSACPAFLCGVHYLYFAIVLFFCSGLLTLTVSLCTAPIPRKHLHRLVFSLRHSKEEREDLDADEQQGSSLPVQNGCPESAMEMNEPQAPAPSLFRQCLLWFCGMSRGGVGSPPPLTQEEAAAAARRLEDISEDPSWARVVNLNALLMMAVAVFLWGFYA
Method: (§1) SGLT1 and SGLT2 were cloned in form of cDNA from human small intestine (Genbank M24847), and from human kidney (Genbank M95549), respectively. Subsequently, each full cDNA was subcloned into pcDNA with each construct's integrity verified through follow-on sequencing. To generate CHO-K1 cells that stably express human SGLT1 or human SGLT2 CHO-K1 cells were transfected using DMRIE-C reagent (Life Technologies, Gaithersburg, Md.). Transfected cells were then selected in the presence of 500 μg/ml of the antibiotic G418 (Gibco-BRL, Grand Island, N.Y.). Individual clones were then characterized using the following cell-based assay for sodium-dependent glucose transport.
(§2) First, cell lines stably expressing human SGLT1 or SGLT2 were seeded at a density of 65,000 cells per well per 200 μl cell culture medium with 10 mM of NaButyrate (Aldrich Catalog No. 30341-0) in a 96-well flat bottom plate (COSTAR, Catalog No. 3903). For human SGLT1 or SGLT2 expressing CHO-K1 cells the culture medium comprised Ham's F-12 (Invitrogen Catalog No. 31765), Fetal Bovine Serum (Invitrogen Catalog No. 16000), G418 (Geneticin, Cellgro Catalog No. 30234-CI), Phlorizidin (Sigma Catalog No. P3449), DPBS (Cellgro Catalog No. 21030-CV), ^14C-methyl-α-D-glucopyranoside (Amersham Catalog No. CFB 76), and Methyl-α-D-glucopyranoside (Sigma Catalog No. M-9376).
(§3) The cells were allowed to incubate for 24 hours. Subsequently, the medium was aspirated from the plates and the cells were washed one time with 150 μl assay buffer and incubate 15 min with another 150 μl assay buffer which comprised 50 mM HEPES pH 7.4, 20 mM Tris Base, 5 mM KCl, 1 mM MgCl2, 1 mM CaCl2, and 137 mM NaCl. After removing the wash buffer, 40 μl assay buffer and 10 μl compound solution was added to each well, which was again allowed to incubate for 10 min.
(§4) Following the 10 min incubation, 10 μl of serial diluted Methyl-α-D-glucopyranoside (Sigma Catalog No. M-9376) containing 0.07 μCi ^14C-methyl-α-D-glucopyranoside (Amersham Catalog No. CFB 76) was added to the appropriate well and allowed to incubate for another 2 hours. ^14C-methyl-α-D-glucopyranoside (Sigma Catalog No. M-9376, St. Louis, Mo.) is a non-metabolizable glucose analog specific for sodium-dependent glucose transporters as previously described by H. Peng and J. E. Lever in “Post-transcriptional regulation of Na+/glucose cotransporter (SGLT1) gene expression in LLC-PK1 cells,” J. Biol. Chem. 270, 20536-42 (1995).
(§5) Next, the plates were twice washed with 150 μl of ice-cold DPBS (Cellgro Catalog No. 21030) that was then completely removed from the plates before adding 50 μl of MicroScint™-20 (Packard Catalog No. 6013621) to each well for a 20 min or longer incubation time.
(§6) Sodium-dependent ^14C-methyl-α-D-glucopyranoside uptake was quantified by measuring radioactivity. Plates were counted in a TopCount (Packard, Meriden, Conn.). Results are reported as the %-inhibition or IC50 value from a representative experiment. Variability for the functional assay was typically within 20%.

[2] = target: T2, human SGLT1 (Homo sapiens, UniProt P13866); assay: Sodium-dependent 14C-methyl-α-D-glucopyranoside uptake in CHO-K1 cells stably expressing human SGLT1; type: cell-based; conditions: for inhibition at 0.1 µM: compound at 0.1 μM; for IC50: 14C-methyl-α-D-glucopyranoside uptake
T2 construct: expressed in transfected cells
T2 sequence (P13866 1-664): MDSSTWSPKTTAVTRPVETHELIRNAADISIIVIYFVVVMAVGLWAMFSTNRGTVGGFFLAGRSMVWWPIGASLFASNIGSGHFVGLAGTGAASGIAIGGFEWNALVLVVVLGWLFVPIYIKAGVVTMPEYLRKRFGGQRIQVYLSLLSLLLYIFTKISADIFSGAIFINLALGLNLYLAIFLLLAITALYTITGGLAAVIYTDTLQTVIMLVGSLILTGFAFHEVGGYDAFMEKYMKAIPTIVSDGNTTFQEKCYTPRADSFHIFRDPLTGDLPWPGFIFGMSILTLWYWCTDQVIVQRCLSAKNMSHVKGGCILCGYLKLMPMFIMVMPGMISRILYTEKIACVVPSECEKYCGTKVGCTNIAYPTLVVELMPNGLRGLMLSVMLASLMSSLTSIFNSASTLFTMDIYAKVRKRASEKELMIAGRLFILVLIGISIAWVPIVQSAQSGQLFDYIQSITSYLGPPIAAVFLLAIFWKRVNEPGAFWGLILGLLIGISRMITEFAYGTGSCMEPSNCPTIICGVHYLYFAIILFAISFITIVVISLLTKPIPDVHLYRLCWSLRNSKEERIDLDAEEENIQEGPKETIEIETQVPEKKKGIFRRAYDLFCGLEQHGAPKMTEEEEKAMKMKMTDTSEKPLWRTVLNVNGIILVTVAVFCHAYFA
Method: as §1, §2, §3, §4, §5, §6

SMILES	inhibition at 0.1 µM [1]	inhibition at 0.1 µM [2]	IC50 [2]	IC50 ([1]; 14C-methyl-α-D-glucopyranoside uptake)
Cc1cc(O)c([C@@H]2O[C@H](CO)C[C@H](O)[C@H]2O)cc1Cc1cc2ccccc2o1 [Cpd 28, (2S,3R,4S,6S)-2-(5-(benzofuran-2-ylmethyl)-2-hydroxy-4-methylphenyl)-6-(hydroxymethyl)tetrahydro-2H-pyran-3,4-diol]	69%	33%	–	–
Cc1cc(O)c([C@@H]2O[C@H](CO)C[C@H](O)[C@H]2O)cc1Cc1nc2ccccc2s1 [Cpd 29, (2S,3R,4S,6S)-2-(5-(benzo[d]thiazol-2-ylmethyl)-2-hydroxy-4-methylphenyl)-6-(hydroxymethyl)tetrahydro-2H-pyran-3,4-diol]	41%	22%	–	–
Cc1cc(Br)c([C@@H]2O[C@H](CO)C[C@H](O)[C@H]2O)cc1Cc1ccc(-c2ccc(F)cc2)s1 [Cpd 30, (2S,3R,4S,6S)-2-(2-bromo-5-((5-(4-fluorophenyl)thiophen-2-yl)methyl)-4-methylphenyl)-6-(hydroxymethyl)tetrahydro-2H-pyran-3,4-diol]	73%	44%	–	–
Cc1cc(O)c([C@@H]2O[C@H](CO)C[C@H](O)[C@H]2O)cc1Cc1ccc(-c2ccc(F)cc2)s1 [Cpd 31, (2S,3R,4S,6S)-2-(5-((5-(4-fluorophenyl)thiophen-2-yl)methyl)-2-hydroxy-4-methylphenyl)-6-(hydroxymethyl)tetrahydro-2H-pyran-3,4-diol]	58%	–	272 nM	–
CCc1ccc(Cc2cc([C@@H]3O[C@H](CO)C[C@H](O)[C@H]3O)c(O)cc2C)s1 [Cpd 32, (2S,3R,4S,6S)-2-(5-((5-ethylthiophen-2-yl)methyl)-2-hydroxy-4-methylphenyl)-6-(hydroxymethyl)tetrahydro-2H-pyran-3,4-diol]	–	–	97 nM	4 nM

— patent US9012412B2, “Dual SGLT1/SGLT2 inhibitors” (Janssen Pharmaceutica NV, priority 2013, dated 2015)
